According to patent US11458189B2, “Cytoprotective drugs” (BALMES TRANSPLANTATION, priority 2017, dated 2022):
Starred links: 1 amine or outer side, 2 acyl side, 3 side chain; linkers in the order of their positions; H or OH if unused. Positions of bridges follow the written chain, without caps; N, C: chain ends. Non-standard residues stand in square brackets, D forms with d. Residues, ends and D or L forms follow the SMILES beside them. *: point of attachment. hTyr(3S-OH,4S-OH,3'-OSO3H) = N[C@H](C(=O)O)[C@H](O)[C@@H](O)c1ccc(O)c(OS(=O)(=O)O)c1; Orn(4R-OH,5R-OH) = O=C([C@H](C[C@@H](O)[C@@H](O)N[*:3])N[*:1])[*:2]; Pro(3S-OH,4S-Me) = C[C@H]1CN[C@H](C(=O)O)[C@H]1O; X1 = CCCCCOc1ccc(-c2cc(-c3ccc(C(=O)*)cc3)no2)cc1; Gln(3R-OH) = NC(=O)C[C@@H](O)[C@H](N)C(=O)O; Hyp = O=C(O)[C@@H]1C[C@@H](O)CN1

System: Human Renal Glomerular Endothelial Cells (HRGEC)
Test: Oxygen and glucose deprivation followed by replenishment, cell survival (calcein AM), HRGEC
Assay type: cell-based
Procedure: Anidulafungin and micafungin were tested on Human Renal Glomerular Endothelial Cells (HRGEC, Innoprot P10665), on Human Renal Proximal Tubular Epithelial Cells (HRPTEpiC, Innoprot P10662), on Human Astrocytes (HA, caltag SC-1800), on Human Cardiac Microvascular Endothelial Cells (HCMEC, Caltag SC-6000), on Human Hepatic Sinusoidal Endothelial Cells (HHSEC, Caltag SC-5000), on Rat Primary Kidney Glomerular Endothelial cells (Cellbiologics, RN-6014G) and on Bovine Brain Microvascular Endothelial Cells (BBMEC, Caltag SC-B100).
In a first phase, these isolated, purified and cryopreserved cells are thawed and multiplied according to the supplier's recommendations in T75 or T175 flasks pre-coated with 2 μg of fibronectin/[…] (CORNING) for HRGEC, HCMEC, HHSEC and BBMEC, or 2 μg poly-L-lysin/cm^2 (Caltag SC-0403) for HRPTEpiC and HA, or 15 mL/flask 175 cm^2 gelatin-based solution (Cellbiologics) in the presence of endothelial cell supplemented growth medium ECM (P60104, INNOPROT, Caltag, SC-1001) for HRGEC, HCMEC, HHSEC, RPKGEC or BBMEC, or astrocyte cell supplemented growth medium AM (Caltag SC-1801) for HA or epithelial cell supplemented growth medium EpiCM (P60106, INNOPROT) for HRPTEpiC, at 37° C. under 5% CO2 and saturated humidity until their confluency. They are then harvested by trypsinization according to the method described by the supplier for exactly 5 minutes and then reseeded in new flasks a maximum of three times.
To carry out the oxygen and glucose deprivation test followed by their replenishment, the cells will be seeded in 96-well black plates with transparent flat bottom (GREINER). Once a sufficient number of cells has been obtained to allow seeding of 2000 to 15000 cells per well of 96-well plates depending on the cell type, the cells are seeded in these 96-well plates previously coated with an extracellular matrix as listed above for the flasks. The cells are cultured for 5 to 8 days according to the cell type, in the presence of the same growth medium as in the flask as described above except for HRGEC and HRPTEpiC for which DMEM (DUTSCHER) with 1 g/L of supplemented glucose is used, at 37° C. under 5% CO2 and saturated humidity to obtain confluency.
On the first day of oxygen and glucose deprivation, (5th, 6th, 7th or 8th day of culture), the culture conditions are drastically changed. The medium of all plates is removed and replaced by DMEM (DUTSCHER) medium without glucose and supplemented only with 1% penicillin-streptomycin (DUTSCHER). Anidulafungin or micafungin dissolved in dimethyl sulfoxide (DMSO) is then added to each well at the desired concentration, resulting in a maximum of 1% DMSO, and the plates are placed under hypoxia at <1% 02 and 5% CO2 at 37° C. for 24 hours of culture. Each compound was tested in a concentration range.
After 24 hours, the growth medium is changed and replaced by a richer medium, DMEM (DUTSCHER) at 1 g/L glucose and 2% FBS (INNOPROT) and 1% penicillin-streptomycin (DUTSCHER). These media will have been pre-equilibrated at 37° C. in advance. The cells are then returned to culture at 37° C. under 20% 02 and 5% CO2 for 22h.
After 22 hours of reoxygenation, the potential protective effect of anidulafungin or micafungin is measured by a cell viability test using calcein AM (CORNING), which is a dye substrate. The calcein AM can easily cross the cell membrane of the viable cells. The AM ester groups mask the part of the molecule that chelates calcium. Once inside the cells, the (non-fluorescent) calcein AM is hydrolyzed to (fluorescent) calcein by endogenous esterases. The resulting calcein molecule binds to calcium inside the cell and remains trapped inside the cell. These molecules emit strong green fluorescence when subjected to […] of a particular wavelength (495 nm). Since dead cells lack esterase activity, only living cells are labelled.
This cell viability test is performed in two steps. […]

CCCCCOc1ccc(-c2cc(-c3ccc(C(=O)N[C@H]4C[C@@H](O)[C@@H](O)NC(=O)[C@@H]5[C@@H](O)[C@@H](C)CN5C(=O)[C@H]([C@H](O)CC(N)=O)NC(=O)[C@H]([C@H](O)[C@@H](O)c5ccc(O)c(OS(=O)(=O)O)c5)NC(=O)[C@@H]5C[C@@H](O)CN5C(=O)[C@H]([C@@H](C)O)NC4=O)cc3)no2)cc1 [Micafungin, {5-[(1S,2S)-2-[(3S,6S,9S,11R,15S,18S,20R,21R,24S,25S,26S)-3-[(1R)-2-carbamoyl-1-hydroxyethyl]-11,20,21,25-tetrahydroxy-15-[(1R)-1-hydroxyethyl]-26-methyl-2,5,8,14,17,23-hexaoxo-18-[(4-{5-[4-(pentyloxy)phenyl]-1,2-oxazol-3-yl}benzene)amido]-1,4,7,13,16,22-hexaazatricyclo[22.3.0.0]heptacosan-6-yl]-1,2-dihydroxyethyl]-2-hydroxyphenyl}oxidanesulfonic acid] (X1-[Orn(4R-OH,5R-OH)]T[Hyp][hTyr(3S-OH,4S-OH,3'-OSO3H)][Gln(3R-OH)][Pro(3S-OH,4S-Me)]; lactam 1-C)
Globalfluo assay 1 ([Micafungin] log μM −4): 11181240 arbitrary units | Globalfluo assay 2 ([Micafungin] log μM −4): 11805530 arbitrary units | Globalfluo assay 3 ([Micafungin] log μM −4): 11095570 arbitrary units | Mean globalfluo ([Micafungin] log μM −4): 11360780 arbitrary units | Survival rate (%) ([Micafungin] log μM −4): 37% | Globalfluo assay 1 ([Micafungin] log μM −4.124939): 12113050 arbitrary units | Globalfluo assay 2 ([Micafungin] log μM −4.124939): 11168770 arbitrary units | Globalfluo assay 3 ([Micafungin] log μM −4.124939): 11691720 arbitrary units | Mean globalfluo ([Micafungin] log μM −4.124939): 11657847 arbitrary units | Survival rate (%) ([Micafungin] log μM −4.124939): 38% | Globalfluo assay 1 ([Micafungin] log μM −4.30103): 10705920 arbitrary units | Globalfluo assay 2 ([Micafungin] log μM −4.30103): 12585990 arbitrary units | Globalfluo assay 3 ([Micafungin] log μM −4.30103): 12661760 arbitrary units | Mean globalfluo ([Micafungin] log μM −4.30103): 11984557 arbitrary units | Survival rate (%) ([Micafungin] log μM −4.30103): 40% | Globalfluo assay 1 ([Micafungin] log μM −4.39794): 12034270 arbitrary units | Globalfluo assay 2 ([Micafungin] log μM −4.39794): 11904770 arbitrary units | Globalfluo assay 3 ([Micafungin] log μM −4.39794): 11704580 arbitrary units | Mean globalfluo ([Micafungin] log μM −4.39794): 11881207 arbitrary units | Survival rate (%) ([Micafungin] log μM −4.39794): 39% | Globalfluo assay 1 ([Micafungin] log μM −4.522879): 9416001 arbitrary units | Globalfluo assay 2 ([Micafungin] log μM −4.522879): 11987430 arbitrary units | Globalfluo assay 3 ([Micafungin] log μM −4.522879): 10070420 arbitrary units | Mean globalfluo ([Micafungin] log μM −4.522879): 10491284 arbitrary units | Survival rate (%) ([Micafungin] log μM −4.522879): 34% | Globalfluo assay 1 ([Micafungin] log μM −4.60206): 10458840 arbitrary units | Globalfluo assay 2 ([Micafungin] log μM −4.60206): 10594720 arbitrary units | Globalfluo assay 3 ([Micafungin] log μM −4.60206): 8636463 arbitrary units | Mean globalfluo ([Micafungin] log μM −4.60206): 9896674 arbitrary units | Survival rate (%) ([Micafungin] log μM −4.60206): 31% | Globalfluo assay 1 ([Micafungin] log μM −4.69897): 8790971 arbitrary units | Globalfluo assay 2 ([Micafungin] log μM −4.69897): 10993750 arbitrary units | Globalfluo assay 3 ([Micafungin] log μM −4.69897): 9050581 arbitrary units | Mean globalfluo ([Micafungin] log μM −4.69897): 9611767 arbitrary units | Survival rate (%) ([Micafungin] log μM −4.69897): 30% | Globalfluo assay 1 ([Micafungin] log μM −4.823909): 9039973 arbitrary units | Globalfluo assay 2 ([Micafungin] log μM −4.823909): 8208392 arbitrary units | Globalfluo assay 3 ([Micafungin] log μM −4.823909): 7686254 arbitrary units | Mean globalfluo ([Micafungin] log μM −4.823909): 8311540 arbitrary units | Survival rate (%) ([Micafungin] log μM −4.823909): 25% | Globalfluo assay 1 ([Micafungin] log μM −5): 5367938 arbitrary units | Globalfluo assay 2 ([Micafungin] log μM −5): 7594623 arbitrary units | Globalfluo assay 3 ([Micafungin] log μM −5): 5742300 arbitrary units | Mean globalfluo ([Micafungin] log μM −5): 6234954 arbitrary units | Survival rate (%) ([Micafungin] log μM −5): 16% | Globalfluo assay 1 ([Micafungin] log μM −5.09691): 5198634 arbitrary units | Globalfluo assay 2 ([Micafungin] log μM −5.09691): 5680528 arbitrary units | Globalfluo assay 3 ([Micafungin] log μM −5.09691): 4518691 arbitrary units | Mean globalfluo ([Micafungin] log μM −5.09691): 5132618 arbitrary units | Survival rate (%) ([Micafungin] log μM −5.09691): 11% | Globalfluo assay 1 ([Micafungin] log μM −5.221849): 5545222 arbitrary units | Globalfluo assay 2 ([Micafungin] log μM −5.221849): 4844574 arbitrary units | Globalfluo assay 3 ([Micafungin] log μM −5.221849): 4333143 arbitrary units | Mean globalfluo ([Micafungin] log μM −5.221849): 4907646 arbitrary units | Survival rate (%) ([Micafungin] log μM −5.221849): 10% | Globalfluo assay 1 ([Micafungin] log μM −5.39794): 3889914 arbitrary units | Globalfluo assay 2 ([Micafungin] log μM −5.39794): 3964004 arbitrary units | Globalfluo assay 3 ([Micafungin] log μM −5.39794): 4064339 arbitrary units | Mean globalfluo ([Micafungin] log μM −5.39794): 3972752 arbitrary units | Survival rate (%) ([Micafungin] log μM −5.39794): 7% | Globalfluo assay 1 ([Micafungin] log μM −5.69897): 3399775 arbitrary units | Globalfluo assay 2 ([Micafungin] log μM −5.69897): 3118863 arbitrary units | Globalfluo assay 3 ([Micafungin] log μM −5.69897): 3166056 arbitrary units | Mean globalfluo ([Micafungin] log μM −5.69897): 3228231 arbitrary units | Survival rate (%) ([Micafungin] log μM −5.69897): 4% | Globalfluo assay 1 ([Micafungin] log μM −6): 3157528 arbitrary units | Globalfluo assay 2 ([Micafungin] log μM −6): 2851345 arbitrary units | Globalfluo assay 3 ([Micafungin] log μM −6): 2667237 arbitrary units | Mean globalfluo ([Micafungin] log μM −6): 2892037 arbitrary units | Survival rate (%) ([Micafungin] log μM −6): 2% | Globalfluo assay 1 ([Micafungin] log μM −6.30103): 2192241 arbitrary units | Globalfluo assay 2 ([Micafungin] log μM −6.30103): 2496288 arbitrary units | Globalfluo assay 3 ([Micafungin] log μM −6.30103): 2306718 arbitrary units | Mean globalfluo ([Micafungin] log μM −6.30103): 2331749 arbitrary units | Survival rate (%) ([Micafungin] log μM −6.30103): 0% | Globalfluo assay 1 ([Micafungin] log μM −7): 2276775 arbitrary units | Globalfluo assay 2 ([Micafungin] log μM −7): 2276419 arbitrary units | Globalfluo assay 3 ([Micafungin] log μM −7): 1622516 arbitrary units | Mean globalfluo ([Micafungin] log μM −7): 2058570 arbitrary units | Survival rate (%) ([Micafungin] log μM −7): −1%
